Key:
Format in all cases: in vivo
[1] = test system: barnyardgrass (ECHCG; Echinochloa crus-galli); experiment: Test G preemergence, mixtures of Cpd. No. 20 with (b15C1)
Excerpt: (§1) This test evaluated the effect of mixtures of Cpd. No. 20 with (b15C1) on several plant species. Seeds of plant species selected from corn (ZEAMD; Zea mays, cv. ‘Pioneer 1184’), soybean (GLXMA; Glycine max, cv. Pioneer 35T58), giant foxtail (SETFA; Setaria faberi), barnyardgrass (ECHCG; Echinochloa crus-galli), large crabgrass (DIGSA; Digitaria sanguinalis), palmer amaranth (AMAPA; Amaranthus palmeri), common waterhemp (AMATU; Amaranthus rudis), and common ragweed (AMBEL; Ambrosia artemisiifolia) were planted in pots containing Tama Silt Loam soil and treated preemergence with a directed soil spray using test chemicals formulated in a non-phytotoxic solvent mixture which included a surfactant.
(§2) Treated plants and untreated controls were maintained in a greenhouse for approximately 21 d, after which time all treated plants were compared to untreated controls and visually evaluated for injury. Plant response ratings, summarized in Table G, are based on a 0 to 100 scale where 0 is no effect and 100 is complete control. A dash (-) response means no test result. Test results are presented as a mean of 4 reps.

[2] = test system: common ragweed (AMBEL; Ambrosia artemisiifolia); experiment: as above
Excerpt: as §1, §2

[3] = test system: common waterhemp (AMATU; Amaranthus rudis); experiment: as above
Excerpt: as §1, §2

[4] = test system: corn (ZEAMD; Zea mays, cv. ‘Pioneer 1184’); experiment: as above
Excerpt: as §1, §2

[5] = test system: giant foxtail (SETFA; Setaria faberi); experiment: as above
Excerpt: as §1, §2

[6] = test system: large crabgrass (DIGSA; Digitaria sanguinalis); experiment: as above
Excerpt: as §1, §2

[7] = test system: palmer amaranth (AMAPA; Amaranthus palmeri); experiment: as above
Excerpt: as §1, §2

[8] = test system: soybean (GLXMA; Glycine max, cv. Pioneer 35T58); experiment: as above
Excerpt: as §1, §2

[9] = test system: corn (ZEAMD; Zea mays, cv. ‘Pioneer 1184’); experiment: Test of Tables L1 to L3, postemergence, mixtures of Cpd. No. 20 with benoxacor, isoxadifen-ethyl, or cloquintocet-mexyl; conditions: for Plant response rating (0 to 100 scale) ZEAMD: approx. 14 d
Excerpt: (§3) This test evaluated the effect of mixtures of Cpd. No. 20 with benoxacor, isoxadifen-ethyl, or cloquintocet-mexyl on several plant species. Seeds of plant species selected from corn (ZEAMD; Zea mays, cv. ‘Pioneer 1184’), soybean (GLXMA; Glycine max, cv. Pioneer 35T58), winter wheat (TRZAW; Triticum aetivum, cv. Arezzo), rice (ORYSS; Oryza sativa, cv. M202), and giant foxtail (SETFA; Setaria faberi) were planted in pots containing Redi-Earth® planting medium (Scotts Company, 14111 Scottslawn Road, Marysville, Ohio 43041) comprising spaghnum peat moss, vermiculite, wetting agent and starter nutrients and treated postemergence using test chemicals formulated in a non-phytotoxic solvent mixture which included a surfactant. Plants ranged in height from 7 to 10 cm and were in the one- to two-leaf stage for the postemergence treatment. Treated plants and untreated controls were maintained in a greenhouse for approximately 14 d, after which time all treated plants were compared to untreated controls and visually evaluated for injury. Plant response ratings, summarized in Tables L1 to L3, are based on a 0 to 100 scale where 0 is no effect and 100 is complete control. A dash (-) response means no test result. Test results are presented as a mean of 4 reps.

[10] = test system: giant foxtail (SETFA; Setaria faberi); experiment: as above; conditions: for Plant response rating (0 to 100 scale) SETFA: approx. 14 d
Excerpt: as §3

[11] = test system: rice (ORYSS; Oryza sativa, cv. M202); experiment: as above; conditions: for Plant response rating (0 to 100 scale) ORYSS: approx. 14 d
Excerpt: as §3

[12] = test system: soybean (GLXMA; Glycine max, cv. Pioneer 35T58); experiment: as above; conditions: for Plant response rating (0 to 100 scale) GLXMA: approx. 14 d
Excerpt: as §3

[13] = test system: winter wheat (TRZAW; Triticum aetivum, cv. Arezzo); experiment: as above; conditions: for Plant response rating (0 to 100 scale) TRZAW: approx. 14 d
Excerpt: as §3

[14] = test system: Bulrush, Japanese (Scirpus juncoides); experiment: Test C flooded paddy test; conditions: Flood, scale 0 to 100
Excerpt: Plant species in the flooded paddy test consisted of rice (transplanted and water seeded, Oryza sativa), sedge, umbrella (small-flower umbrella sedge, Cyperus difformis), ducksalad (Heteranthera limosa), Bulrush, Japanese (Scirpus juncoides) and barnyardgrass (Echinochloa crus-galli) grown to the 2-leaf stage for testing. At time of treatment, test pots were flooded to 3 cm above the soil surface, treated by application of test compounds directly to the paddy water, and then maintained at that water depth for the duration of the test. Treated plants and controls were maintained in a greenhouse for 13 to 15 d, after which time all species were compared to controls and visually evaluated. Plant response ratings, summarized in Table C are based on a scale of 0 to 100 where 0 is no effect and 100 is complete control. A dash (-) response means no test result.

[15] = Cpd. No. 20 alone 125 g a.i./ha
[16] = Cpd. No. 20 alone 250 g a.i./ha
[17] = Cpd. No. 20 alone 375 g a.i./ha

With `Cc1ccc2ccc(C)c(-c3c(O)c(Cl)nn(C)c3=O)c2c1` [Cpd. No. 20, 6-chloro-4-(2,7-dimethyl-1-naphthalenyl)-5-hydroxy-2-methyl-3(2H)-pyridazinone] the “Plant response rating (0 to 100 scale)” value ([1]; Cpd. No. 20 16 g a.i./ha alone) was 21, the “Plant response rating (0 to 100 scale)” value ([1]; Cpd. No. 20 31 g a.i./ha alone) was 51 and the “Plant response rating (0 to 100 scale)” value ([1]; Cpd. No. 20 62 g a.i./ha alone) was 70. For the same compound, the “Plant response rating (0 to 100 scale)” value ([2]; Cpd. No. 20 16 g a.i./ha alone) was 48, the “Plant response rating (0 to 100 scale)” value ([2]; Cpd. No. 20 31 g a.i./ha alone) was 73 and the “Plant response rating (0 to 100 scale)” value ([2]; Cpd. No. 20 62 g a.i./ha alone) was 74. For the same compound, the “Plant response rating (0 to 100 scale)” value ([3]; Cpd. No. 20 16 g a.i./ha alone) was 55, the “Plant response rating (0 to 100 scale)” value ([3]; Cpd. No. 20 31 g a.i./ha alone) was 96 and the “Plant response rating (0 to 100 scale)” value ([3]; Cpd. No. 20 62 g a.i./ha alone) was 99. The “Plant response rating (0 to 100 scale)” value ([4]; Cpd. No. 20 16 g a.i./ha alone) was 0, the “Plant response rating (0 to 100 scale)” value ([4]; Cpd. No. 20 31 g a.i./ha alone) was 0 and the “Plant response rating (0 to 100 scale)” value ([4]; Cpd. No. 20 62 g a.i./ha alone) was 0. For the same compound, the “Plant response rating (0 to 100 scale)” value ([5]; Cpd. No. 20 16 g a.i./ha alone) was 66, the “Plant response rating (0 to 100 scale)” value ([5]; Cpd. No. 20 31 g a.i./ha alone) was 88 and the “Plant response rating (0 to 100 scale)” value ([5]; Cpd. No. 20 62 g a.i./ha alone) was 74. The “Plant response rating (0 to 100 scale)” value ([6]; Cpd. No. 20 16 g a.i./ha alone) was 9, the “Plant response rating (0 to 100 scale)” value ([6]; Cpd. No. 20 31 g a.i./ha alone) was 11 and the “Plant response rating (0 to 100 scale)” value ([6]; Cpd. No. 20 62 g a.i./ha alone) was 25. For the same compound, the “Plant response rating (0 to 100 scale)” value ([7]; Cpd. No. 20 16 g a.i./ha alone) was 73, the “Plant response rating (0 to 100 scale)” value ([7]; Cpd. No. 20 31 g a.i./ha alone) was 70 and the “Plant response rating (0 to 100 scale)” value ([7]; Cpd. No. 20 62 g a.i./ha alone) was 78. The “Plant response rating (0 to 100 scale)” value ([8]; Cpd. No. 20 16 g a.i./ha alone) was 0, the “Plant response rating (0 to 100 scale)” value ([8]; Cpd. No. 20 31 g a.i./ha alone) was 18 and the “Plant response rating (0 to 100 scale)” value ([8]; Cpd. No. 20 62 g a.i./ha alone) was 24. The “ZEAMD plant response rating, 0 to 100 scale” value (“ZEAMD plant response rating” for short) ([9]; 125 g a.i./ha) was 8, the “ZEAMD plant response rating” value ([9]; 250 g a.i./ha) was 1 and the “ZEAMD plant response rating” value ([9]; 375 g a.i./ha) was 34. The “Plant response rating (0 to 100 scale) ZEAMD” value [9, 15] was 8, the “Plant response rating (0 to 100 scale) ZEAMD” value [9, 16] was 1 and the “Plant response rating (0 to 100 scale) ZEAMD” value [9, 17] was 34. For the same compound, the “SETFA plant response rating, 0 to 100 scale” value (“SETFA plant response rating” below) ([10]; 125 g a.i./ha) was 84, the “SETFA plant response rating” value ([10]; 250 g a.i./ha) was 88 and the “SETFA plant response rating” value ([10]; 375 g a.i./ha) was 90. For the same compound, the “Plant response rating (0 to 100 scale) SETFA” value [10, 15] was 84, the “Plant response rating (0 to 100 scale) SETFA” value [10, 16] was 88 and the “Plant response rating (0 to 100 scale) SETFA” value [10, 17] was 90. For the same compound, the “ORYSS plant response rating, 0 to 100 scale” value (shortened to “ORYSS plant response rating”) ([11]; 125 g a.i./ha) was 5, the “ORYSS plant response rating” value ([11]; 250 g a.i./ha) was 18 and the “ORYSS plant response rating” value ([11]; 375 g a.i./ha) was 23. For the same compound, the “Plant response rating (0 to 100 scale) ORYSS” value [11, 15] was 5, the “Plant response rating (0 to 100 scale) ORYSS” value [11, 16] was 18 and the “Plant response rating (0 to 100 scale) ORYSS” value [11, 17] was 23. For the same compound, the “GLXMA plant response rating, 0 to 100 scale” value (“GLXMA plant response rating” for short) ([12]; 125 g a.i./ha) was 15, the “GLXMA plant response rating” value ([12]; 250 g a.i./ha) was 29 and the “GLXMA plant response rating” value ([12]; 375 g a.i./ha) was 39. The “Plant response rating (0 to 100 scale) GLXMA” value [12, 15] was 15, the “Plant response rating (0 to 100 scale) GLXMA” value [12, 16] was 29 and the “Plant response rating (0 to 100 scale) GLXMA” value [12, 17] was 39. For the same compound, the “TRZAW plant response rating, 0 to 100 scale” value (“TRZAW plant response rating” below) ([13]; 125 g a.i./ha) was 28, the “TRZAW plant response rating” value ([13]; 250 g a.i./ha) was 36 and the “TRZAW plant response rating” value ([13]; 375 g a.i./ha) was 39. The “Plant response rating (0 to 100 scale) TRZAW” value [13, 15] was 28, the “Plant response rating (0 to 100 scale) TRZAW” value [13, 16] was 36 and the “Plant response rating (0 to 100 scale) TRZAW” value [13, 17] was 39.
`Cc1cc(Cl)c2ccccc2c1-c1c(O)c(Cl)nn(C)c1=O` [Cpd. No. 65] was tested, and the “Plant response rating, Bulrush, Japanese” value ([14]; 62 g ai/ha) was 75 and the “Plant response rating, Bulrush, Japanese” value ([14]; 125 g ai/ha) was 90.

— patent publication US12435044B2, “Pyridazinone herbicides and pyridazinone intermediates used to prepare a herbicide” (FMC Corporation, priority 2018, dated 2025)
